What was measured:
SMARCA2 = SMARCA2 (Homo sapiens (Human), UniProt P51531); test: SMARCA2 HiBiT degradation assay in HeLa cells; format: cell-based; details: 18 hours; for DC50: read-out: DC50 (SM2-HeLa) SMARCA2 degradation potency; for Dmax: read-out: Dmax % (SM2-HeLa) maximum SMARCA2 degradation within the concentrations tested
Experimental: (§1) HiBiT peptide knock-in of SMARCA2 in LgBiT expressing HEK293T cells was performed by CRISPR-mediated tagging system as described Promega. The homozygous HiBiT knock-in on c-terminus SMARCA2 was confirmed by sanger sequence. SMARCA2-HiBiT knock-in Hela monoclonal cell (CS302366) and SMARCA4-HiBiT knock-in Hela monoclonal cell (CS3023226) were purchased from Promega. The heterozygous HiBiT-knock-in was confirmed by sanger sequence in both SMARCA2-HiBiT and SMARCA4-HiBiT monoclonal cells.
(§2) Dispense 10 μL aliquot of prepared Hela-SMARCA2-HiBiT or Hela-SMARCA4-HiBiT cells (1:1 ratio of cells:Trypan Blue (#1450013, Bio-Rad)) onto cell counting slide (#145-0011, Bio-Rad) and obtain cell density and cell viability using cell counter (TC20, Bio-Rad). Remove appropriate volume of resuspended cells from culture flask to accommodate 2500 cells/well @ 20 μL/well. Transfer Hela-HiBiT cells to 50 ml conical (#430290, Corning). Spin down at 1000 rpm for 5 min using tabletop centrifuge (SPINCHRON 15, Beckman). Discard supernatant and resuspend cell pellet in modified EMEM (#30-2003, ATCC) cell culture media containing 10% FBS (F2422-500ML, Sigma), and 1×Penicillin/Streptomycin (200 g/1) (30-002-CI, Corning) to a cell density of 125,000 cells/ml. Dispense 20 μL of resuspended Hela-HiBit cells per well in 384-well TC treated plate (#12-565-343, Thermo Scientific) using standard cassette (#50950372, Thermo Scientific) on Multidrop Combi (#5840310, Thermo Scientific) inside laminar flow cabinet. Dispense test compounds onto plates using digital liquid dispenser (D300E, Tecan). Incubate plates in humidified tissue culture incubator @37° C. for 18 hours. Add 20 ul of prepared Nano-Glo® HiBiT Lytic detection buffer (N3050, Promega) to each well of 384-well plate using small tube cassette (#24073295, Thermo Scientific) on Multidrop Combi, incubate @ RT for 30-60 min. Read plates on microplate reader (Envision 2105, PerkinElmer) using 384 well Ultra-Sensitive luminescence mode. Raw data files and compound information reports are swept into centralized data lake and deconvoluted using automated scripts designed by TetraScience, Inc. Data analysis, curve-fitting and reporting done in Dotmatics Informatics Suite using Screening Ultra module.

SMARCA4 = SMARCA4 (Homo sapiens (Human), UniProt P51532); test: SMARCA4 HiBiT degradation assay in HeLa cells; format: cell-based; details: 18 hours; for DC50: read-out: DC50 (SM4-HeLa) SMARCA4 degradation potency; for Dmax: HeLa, read-out: Dmax % (SM4-HeLa) maximum SMARCA4 degradation within the concentrations tested
Experimental: as §1, §2

Chain of SMARCA4 (P51532 whole entry): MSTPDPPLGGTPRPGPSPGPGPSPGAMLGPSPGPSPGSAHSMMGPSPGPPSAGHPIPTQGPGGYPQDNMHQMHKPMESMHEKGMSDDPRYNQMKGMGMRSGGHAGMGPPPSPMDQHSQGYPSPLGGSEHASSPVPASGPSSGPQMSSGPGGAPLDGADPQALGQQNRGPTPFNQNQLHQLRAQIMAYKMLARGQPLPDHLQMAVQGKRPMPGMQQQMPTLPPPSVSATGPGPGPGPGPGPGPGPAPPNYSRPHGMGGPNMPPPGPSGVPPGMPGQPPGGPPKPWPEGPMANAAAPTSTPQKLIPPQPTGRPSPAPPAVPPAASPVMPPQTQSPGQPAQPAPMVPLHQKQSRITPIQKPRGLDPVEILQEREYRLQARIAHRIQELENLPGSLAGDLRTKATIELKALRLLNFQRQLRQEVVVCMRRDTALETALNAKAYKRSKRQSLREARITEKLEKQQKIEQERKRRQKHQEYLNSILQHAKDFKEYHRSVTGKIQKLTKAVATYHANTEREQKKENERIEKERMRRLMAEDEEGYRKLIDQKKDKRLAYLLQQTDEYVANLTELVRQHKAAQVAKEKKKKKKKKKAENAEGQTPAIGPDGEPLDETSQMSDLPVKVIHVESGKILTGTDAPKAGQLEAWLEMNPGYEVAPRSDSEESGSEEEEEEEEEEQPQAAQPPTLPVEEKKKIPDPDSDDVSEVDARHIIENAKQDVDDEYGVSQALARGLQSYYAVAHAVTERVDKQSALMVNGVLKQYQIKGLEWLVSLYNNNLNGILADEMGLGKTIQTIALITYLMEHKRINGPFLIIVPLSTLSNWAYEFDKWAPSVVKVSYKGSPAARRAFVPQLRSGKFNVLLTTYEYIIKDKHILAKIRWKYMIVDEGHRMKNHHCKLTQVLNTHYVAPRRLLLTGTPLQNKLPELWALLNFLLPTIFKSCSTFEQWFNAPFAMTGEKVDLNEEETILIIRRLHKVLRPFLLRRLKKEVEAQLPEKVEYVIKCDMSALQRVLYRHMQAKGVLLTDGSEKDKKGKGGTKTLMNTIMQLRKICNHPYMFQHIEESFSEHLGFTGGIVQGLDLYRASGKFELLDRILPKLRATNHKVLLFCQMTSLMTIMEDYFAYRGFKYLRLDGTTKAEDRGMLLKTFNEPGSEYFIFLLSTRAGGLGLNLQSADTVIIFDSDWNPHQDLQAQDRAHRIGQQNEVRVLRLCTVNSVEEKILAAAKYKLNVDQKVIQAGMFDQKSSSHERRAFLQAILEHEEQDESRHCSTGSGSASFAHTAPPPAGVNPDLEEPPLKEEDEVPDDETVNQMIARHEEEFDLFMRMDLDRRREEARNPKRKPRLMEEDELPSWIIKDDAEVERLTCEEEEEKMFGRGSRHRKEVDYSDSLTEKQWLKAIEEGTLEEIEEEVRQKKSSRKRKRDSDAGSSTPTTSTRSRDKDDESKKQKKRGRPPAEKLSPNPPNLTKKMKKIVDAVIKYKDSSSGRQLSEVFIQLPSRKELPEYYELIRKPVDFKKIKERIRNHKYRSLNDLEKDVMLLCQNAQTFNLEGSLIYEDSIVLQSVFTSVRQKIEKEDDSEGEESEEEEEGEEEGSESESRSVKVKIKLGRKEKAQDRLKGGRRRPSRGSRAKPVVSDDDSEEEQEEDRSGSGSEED
Chain of SMARCA2 (P51531 whole entry): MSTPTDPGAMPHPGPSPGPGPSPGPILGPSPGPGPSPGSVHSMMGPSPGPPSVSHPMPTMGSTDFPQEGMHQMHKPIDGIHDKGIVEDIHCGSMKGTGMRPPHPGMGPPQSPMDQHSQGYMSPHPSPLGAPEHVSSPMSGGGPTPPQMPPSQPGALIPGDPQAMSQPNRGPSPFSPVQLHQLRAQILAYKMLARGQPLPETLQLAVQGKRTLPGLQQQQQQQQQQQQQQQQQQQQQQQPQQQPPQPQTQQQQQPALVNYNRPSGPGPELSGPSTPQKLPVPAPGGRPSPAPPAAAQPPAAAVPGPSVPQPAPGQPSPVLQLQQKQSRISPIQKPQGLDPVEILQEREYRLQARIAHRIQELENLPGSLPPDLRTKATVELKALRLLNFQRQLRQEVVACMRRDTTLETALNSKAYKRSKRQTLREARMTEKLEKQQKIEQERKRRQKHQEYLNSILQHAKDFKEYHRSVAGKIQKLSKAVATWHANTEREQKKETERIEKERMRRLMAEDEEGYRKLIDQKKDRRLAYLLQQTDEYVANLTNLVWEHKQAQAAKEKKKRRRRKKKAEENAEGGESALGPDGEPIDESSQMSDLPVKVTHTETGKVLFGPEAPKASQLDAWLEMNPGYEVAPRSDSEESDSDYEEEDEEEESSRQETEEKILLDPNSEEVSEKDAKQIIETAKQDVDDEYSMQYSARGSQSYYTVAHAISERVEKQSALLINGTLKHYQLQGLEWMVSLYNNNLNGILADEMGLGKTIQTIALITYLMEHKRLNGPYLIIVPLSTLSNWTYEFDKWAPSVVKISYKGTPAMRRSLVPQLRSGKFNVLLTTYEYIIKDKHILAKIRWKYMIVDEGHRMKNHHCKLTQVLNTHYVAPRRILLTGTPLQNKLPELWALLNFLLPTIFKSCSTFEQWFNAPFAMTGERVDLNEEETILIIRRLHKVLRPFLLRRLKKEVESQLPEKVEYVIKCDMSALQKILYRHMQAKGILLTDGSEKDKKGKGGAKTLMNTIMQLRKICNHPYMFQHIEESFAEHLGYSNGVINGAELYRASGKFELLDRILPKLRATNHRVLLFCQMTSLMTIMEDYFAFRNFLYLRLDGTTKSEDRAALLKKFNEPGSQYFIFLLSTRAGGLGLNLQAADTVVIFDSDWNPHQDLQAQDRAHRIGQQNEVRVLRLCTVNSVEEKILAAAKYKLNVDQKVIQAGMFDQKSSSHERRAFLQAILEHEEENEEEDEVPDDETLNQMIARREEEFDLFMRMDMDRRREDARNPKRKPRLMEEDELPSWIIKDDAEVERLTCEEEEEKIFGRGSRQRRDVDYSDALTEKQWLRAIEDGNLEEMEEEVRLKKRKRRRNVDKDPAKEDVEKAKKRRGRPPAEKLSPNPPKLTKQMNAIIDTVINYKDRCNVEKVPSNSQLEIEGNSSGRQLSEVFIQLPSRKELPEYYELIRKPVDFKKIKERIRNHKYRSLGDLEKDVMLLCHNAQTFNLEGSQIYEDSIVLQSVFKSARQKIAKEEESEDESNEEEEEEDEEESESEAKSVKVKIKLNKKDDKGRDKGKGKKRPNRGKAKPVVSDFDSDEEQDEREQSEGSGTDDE

Structure (SMILES) | DC50 (SMARCA2) [nM] | Dmax (SMARCA2) [%] | DC50 (SMARCA4) [nM] | Dmax (SMARCA4) [%]
Cc1ncsc1-c1ccc([C@H](C)NC(=O)[C@@H]2C[C@@H](O)CN2C(=O)[C@@H](c2cc(OCCN(C)C3CCC(N4CCN5c6cc(-c7ccccc7O)nnc6NC[C@H]5C4)CC3)no2)C(C)C)cc1 (stereo partly drawn) [Example 43, (2S,4R)-4-hydroxy-1-((R)-2-(3-(2-((4-((S)-2-(2-hydroxyphenyl)-5,6,6a,7,9,10-hexahydro-8H-pyrazino[1′,2′:4,5]pyrazino[2,3-c]pyridazin-8-yl)cyclohexyl)(methyl)amino)ethoxy)isoxazol-5-yl)-3-methylbutanoyl)-N-((S)-1-(4-(4-methylthiazol-5-yl)phenyl)ethyl)pyrrolidine-2-carboxamide] | < 100 | > 75 | < 100 | > 75
Cc1ncsc1-c1ccc([C@H](C)NC(=O)[C@@H]2C[C@@H](O)CN2C(=O)[C@@H](c2cc(OCCN3CCC(N4CCC(N5CCN6c7cc(-c8ccccc8O)nnc7NC[C@H]6C5)CC4)C3)no2)C(C)C)cc1 (stereo partly drawn) [Example 25, (2S,4R)-4-hydroxy-1-((2R)-2-(3-(2-(3-(4-((S)-2-(2-hydroxyphenyl)-5,6,6a,7,9,10-hexahydro-8H-pyrazino[1′,2′:4,5]pyrazino[2,3-c]pyridazin-8-yl)piperidin-1-yl)pyrrolidin-1-yl)ethoxy)isoxazol-5-yl)-3-methylbutanoyl)-N-((S)-1-(4-(4-methylthiazol-5-yl)phenyl)ethyl)pyrrolidine-2-carboxamide] | < 100 | > 75 | 100 to 1000 | 50 to 75
Cc1ncsc1-c1ccc([C@H](C)NC(=O)[C@@H]2C[C@@H](O)CN2C(=O)[C@@H](c2cc(OCCN3CC=C(CN4CCN5c6cc(-c7ccccc7O)nnc6NC[C@H]5C4)CC3)no2)C(C)C)cc1 [Example 90, (2S,4R)-4-hydroxy-1-((R)-2-(3-(2-(4-(((S)-2-(2-hydroxyphenyl)-5,6,6a,7,9,10-hexahydro-8H-pyrazino[1′,2′:4,5]pyrazino[2,3-c]pyridazin-8-yl)methyl)-3,6-dihydropyridin-1(2H)-yl)ethoxy)isoxazol-5-yl)-3-methylbutanoyl)-N-((S)-1-(4-(4-methylthiazol-5-yl)phenyl)ethyl)pyrrolidine-2-carboxamide] | < 100 | > 75 | < 100 | > 75
Cc1ncsc1-c1ccc([C@H](C)NC(=O)[C@@H]2C[C@@H](O)CN2C(=O)[C@@H](c2cc(OCCN3CCC(N4CCN5c6cc(-c7ccccc7O)nnc6NC(C)C5C4)CC3)no2)C(C)C)cc1 (stereo partly drawn) [Example 96, (2S,4R)-4-hydroxy-1-((2R)-2-(3-(2-(4-(2-(2-hydroxyphenyl)-6-methyl-5,6,6a,7,9,10-hexahydro-8H-pyrazino[1′,2′:4,5]pyrazino[2,3-c]pyridazin-8-yl)piperidin-1-yl)ethoxy)isoxazol-5-yl)-3-methylbutanoyl)-N-((S)-1-(4-(4-methylthiazol-5-yl)phenyl)ethyl)pyrrolidine-2-carboxamide] | < 100 | > 75 | < 100 | > 75
Cc1ncsc1-c1ccc([C@H](CO)NC(=O)[C@@H]2C[C@@H](O)CN2C(=O)C(c2cc(OCCN3CCC(CN4CCN5c6cc(-c7ccccc7O)nnc6NC[C@H]5C4)CC3)no2)C(C)C)cc1 (stereo partly drawn) [Example 46, (2S,4R)-4-hydroxy-N-((R)-2-hydroxy-1-(4-(4-methylthiazol-5-yl)phenyl)ethyl)-1-(2-(3-(2-(4-(((S)-2-(2-hydroxyphenyl)-5,6,6a,7,9,10-hexahydro-8H-pyrazino[1′,2′:4,5]pyrazino[2,3-c]pyridazin-8-yl)methyl)piperidin-1-yl)ethoxy)isoxazol-5-yl)-3-methylbutanoyl)pyrrolidine-2-carboxamide] | < 100 | > 75 | 100 to 1000 | > 75
Cc1ncsc1-c1ccc([C@H](C)NC(=O)[C@@H]2C[C@@H](O)CN2C(=O)[C@@H](c2cc(OCCN3CCC(N4CCC(N5CCN6c7cc(-c8ccccc8O)nnc7NC[C@H]6C5)C4)CC3)no2)C(C)C)cc1 (single isomer, unassigned) [Example 69] | < 100 | > 75 | < 100 | > 75
Cc1ncsc1-c1ccc([C@H](C)NC(=O)[C@@H]2C[C@@H](O)CN2C(=O)[C@@H](c2cc(OCCN3CC4CC(N5CCN6c7cc(-c8ccccc8O)nnc7NC[C@H]6C5)CC4C3)no2)C(C)C)cc1 (stereo partly drawn) [Example 47, (2S,4R)-4-hydroxy-1-((2R)-2-(3-(2-(5-((S)-2-(2-hydroxyphenyl)-5,6,6a,7,9,10-hexahydro-8H-pyrazino[1′,2′:4,5]pyrazino[2,3-c]pyridazin-8-yl)hexahydrocyclopenta[c]pyrrol-2(1H)-yl)ethoxy)isoxazol-5-yl)-3-methylbutanoyl)-N-((S)-1-(4-(4-methylthiazol-5-yl)phenyl)ethyl)pyrrolidine-2-carboxamide] | < 100 | > 75 | < 100 | > 75
Cc1ncsc1-c1ccc([C@H](C)NC(=O)[C@@H]2C[C@@H](O)CN2C(=O)[C@@H](c2cc(O[C@H](C)C(=O)N3CCC(N4CCN5c6cc(-c7ccccc7O)nnc6NC[C@H]5C4)CC3)no2)C(C)C)cc1 [Example 73, (2S,4R)-4-hydroxy-1-((R)-2-(3-(((R)-1-(4-((S)-2-(2-hydroxyphenyl)-5,6,6a,7,9,10-hexahydro-8H-pyrazino[1′,2′:4,5]pyrazino[2,3-c]pyridazin-8-yl)piperidin-1-yl)-1-oxopropan-2-yl)oxy)isoxazol-5-yl)-3-methylbutanoyl)-N-((S)-1-(4-(4-methylthiazol-5-yl)phenyl)ethyl)pyrrolidine-2-carboxamide] | < 100 | > 75 | 100 to 1000 | 50 to 75

The remaining lines, values ahead:

DC50 (SMARCA2) [nM] | Dmax (SMARCA2) [%] | DC50 (SMARCA4) [nM] | Dmax (SMARCA4) [%] | Structure (SMILES)
< 100 | > 75 | < 100 | > 75 | Cc1ncsc1-c1ccc([C@H](C)NC(=O)[C@@H]2C[C@@H](O)CN2C(=O)[C@@H](c2cc(OCCN3CCC(C(C)N4CCN5c6cc(-c7ccccc7O)nnc6NC[C@H]5C4)CC3)no2)C(C)C)cc1 (single isomer, unassigned) [Example 58]
< 100 | > 75 | < 100 | > 75 | Cc1ncsc1-c1ccc([C@H](C)NC(=O)[C@@H]2C[C@@H](O)CN2C(=O)[C@@H](c2cc(OCCN3CCC(N4CCN5c6cc(-c7ccccc7O)nnc6NC[C@H]5C4)CC3)no2)C(C)C)cc1 [Example 76, (2S,4R)-4-hydroxy-1-((R)-2-(3-(2-(4-((S)-2-(2-hydroxyphenyl)-5,6,6a,7,9,10-hexahydro-8H-pyrazino[1′,2′:4,5]pyrazino[2,3-c]pyridazin-8-yl)piperidin-1-yl)ethoxy)isoxazol-5-yl)-3-methylbutanoyl)-N-((S)-1-(4-(4-methylthiazol-5-yl)phenyl)ethyl)pyrrolidine-2-carboxamide]
< 100 | > 75 | < 100 | > 75 | Cc1ncsc1-c1ccc([C@H](C)NC(=O)[C@@H]2C[C@@H](O)CN2C(=O)[C@@H](c2cc(OCCN3CCC(N4CCN5c6cc(-c7ccccc7O)nnc6NC[C@H]5C4)C(C)C3)no2)C(C)C)cc1 (single isomer, unassigned) [Example 55]
< 100 |  | < 100 |  | Cc1ncsc1-c1ccc([C@H](C)NC(=O)[C@@H]2C[C@@H](O)CN2C(=O)[C@@H](c2cc(OCCN3CCCC(N4CCN5c6cc(-c7ccccc7O)nnc6NC[C@H]5C4)C3)no2)C(C)C)cc1 (single isomer, unassigned) [Example 42]
< 100 | > 75 | < 100 | > 75 | Cc1ncsc1-c1ccc([C@H](C)NC(=O)[C@@H]2C[C@@H](O)CN2C(=O)[C@@H](c2cc(OCCN3CCC(N(C)C4CCN5c6cc(-c7ccccc7O)nnc6NCC5C4)CC3)no2)C(C)C)cc1 (stereo partly drawn) [Example 99, (2S,4R)-4-hydroxy-1-((2R)-2-(3-(2-(4-((2-(2-hydroxyphenyl)-6,6a,7,8,9,10-hexahydro-5H-pyrido[1′,2′:4,5]pyrazino[2,3-c]pyridazin-8-yl)(methyl)amino)piperidin-1-yl)ethoxy)isoxazol-5-yl)-3-methylbutanoyl)-N-((S)-1-(4-(4-methylthiazol-5-yl)phenyl)ethyl)pyrrolidine-2-carboxamide]

From patent US20240018158A1, “BRM TARGETING COMPOUNDS AND ASSOCIATED METHODS OF USE” (Prelude Therapeutics Incorporated, priority 2020, published 2024)
